Drawing on ChEMBL document CHEMBL3580652, “Hikiamides A-C, Cyclic Pentadepsipeptides from Fusarium sp. TAMA 456” (J Nat Prod, 2015), this text covers Activity and fold change (FC) for three compounds.

The source made the active and inactive calls. The calls are words filed in the database; no cut-off is given here. Where a SMILES comes first, the peptide text is derived from it. [ ]: non-standard residue; d: D form. Hica(2S) = CC(C)C[C@H](O)C(=O)O; NMeL = CN[C@@H](CC(C)C)C(=O)O

One assay relates to ST-13. In words: Induction of mouse ST-13 cell differentiation assessed as increase in accumulation of lipid droplets in cytosol at 2 to 4 uM after 11 days by oil red o staining-based phase contrast microscopic analysis. In kind it is functional.
Assay [1] can be described thus: Upregulation of adiponectin mRNA expression in mouse ST-13 cells at 2 uM by RT-qPCR analysis relative to control. In kind it is functional, cell-based.
Assay [2] addresses T1, Peroxisome proliferator-activated receptor gamma (Homo sapiens) (UniProt P37231).
T1 sequence (whole entry): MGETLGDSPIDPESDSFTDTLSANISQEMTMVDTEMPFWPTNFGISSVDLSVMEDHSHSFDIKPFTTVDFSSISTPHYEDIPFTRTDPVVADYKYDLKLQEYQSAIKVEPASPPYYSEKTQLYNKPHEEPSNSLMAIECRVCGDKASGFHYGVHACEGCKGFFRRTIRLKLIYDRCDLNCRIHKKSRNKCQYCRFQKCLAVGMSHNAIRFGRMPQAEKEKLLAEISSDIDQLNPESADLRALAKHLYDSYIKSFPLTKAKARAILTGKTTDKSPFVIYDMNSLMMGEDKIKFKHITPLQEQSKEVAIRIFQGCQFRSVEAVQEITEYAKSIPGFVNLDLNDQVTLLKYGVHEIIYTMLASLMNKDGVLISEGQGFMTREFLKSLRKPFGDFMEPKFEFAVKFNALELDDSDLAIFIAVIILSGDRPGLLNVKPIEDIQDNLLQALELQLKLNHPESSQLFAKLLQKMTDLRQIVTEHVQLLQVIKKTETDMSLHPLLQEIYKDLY
In words: Agonist activity at human PPARgamma ligand binding domain fused with GAL4 DNA binding domain transfected in African green monkey COS1 cells assessed as transcriptional activation after 24 hrs by Steady-Glo luciferase reporter gene assay. In kind it is cell-based. The following applies: COS-1. (A reporter such as luciferase makes a cellular process visible.)

Take `CC(C)C[C@@H]1OC(=O)[C@H](Cc2ccccc2)NC(=O)[C@H](Cc2c[nH]c3ccccc23)NC(=O)[C@H](CC(C)C)N(C)C(=O)[C@H](C(C)C)NC1=O` (cyclo(F[Hica(2S)]V[NMeL]W)): the outcome in the assay with ST-13 was Active. The compound further had a fold change (FC) in assay [1] of 10. Moreover, the Activity result in assay [2] was “Dose-dependent effect”.
Take `CC(C)C[C@@H]1OC(=O)[C@H](Cc2ccccc2)NC(=O)[C@H](Cc2ccccc2)NC(=O)[C@H](CC(C)C)N(C)C(=O)[C@H](C(C)C)NC1=O` (cyclo(FF[Hica(2S)]V[NMeL])): in the assay with ST-13, the outcome was Active. Moreover, the fold change (FC) in assay [1] stood at 13.3. For the same compound, the Activity result in assay [2] was “Dose-dependent effect”.
The matching figures for `CC(C)C[C@@H]1NC(=O)[C@H](C(C)C)NC(=O)[C@H](CC(C)C)OC(=O)[C@H](Cc2ccccc2)NC(=O)[C@H](Cc2ccccc2)NC1=O` (cyclo(FF[Hica(2S)]VL)): “Active”, 5.2 and “Dose-dependent effect”.
